Where two headings read alike, the source gives them in different places.
Test: Single-dose pharmacokinetics in dogs (plasma, UHPLC/MS/MS)
Type: in vivo, Beagle dogs
Settings: for MRT last: read-out: MRT0-t; for MRT inf: read-out: MRT0-∞
From the text: Sixty healthy adult Sprague Dawley rats (180-220 g, half male and female) were purchased from the Guangdong Medical Laboratory Animal Center (Guangzhou, Guangdong, China). Thirty Beagle dogs (10-14 kg, half male and female) were purchased from the […] Laboratory Animal Science & Technology Co., Ltd. (Gaoyao, Guangdong, China). All animals were housed under humanized conditions with free access to food and water, and acclimated to the living conditions for at least one week prior to experimentation at the Laboratory Animal Center of the School of Life Sciences, Sun Yat-sen University. Environmental conditions were maintained at 20°C-25°C, 55% ± 15% relative humidity, 12-h light/dark cycles, and 12 air changes per hour. Prior to experimentation, the animals were fasted overnight with water available ad libitum. All animals were healthy based on physical examination and laboratory analyses performed before and after the experiments. At the end of the experiments, the dogs were returned to the Laboratory Animal Center of School of Life Sciences, Sun Yat-sen University. […] All blood samples were transferred into heparin-treated centrifuge tubes and centrifuged for 10 min at 4,000 rpm and 4°C. All human urine samples were mixed and transferred (4 ml) into storage tubes. All biological samples were stored at -80°C. […] The optimal volume and activity in unit volume of enzyme solution [0.2 M acetic acid/water solution: 0.2 M ammonium acetate/water solution, 15:35 (v/v)] were determined through a pretest of the enzyme (rat plasma, 10 μl, 10 U μl^-1; dog plasma, 10 μl, 10 U μl^-1; human plasma, 20 μl, 20 U μl^-1; human urine, 10 μl, 10 U μl^-1). After enzyme incubation, 10 μl of IS solution was added to the plasma and urine samples (2 μg ml^-1 quercetin 3-β-D-glucoside for rat and dog plasma; 583 ng ml^-1 naringin-D4 and 160 ng ml^-1 naringenin-D4 for human plasma; and 9,710 ng ml^-1 naringin-D4 and 6,000 ng ml^-1 naringenin-D4 for human urine). To each fecal sample, 9-fold methanol-normal saline (2:1, v/v) was added, mixed (18,000 rpm, 15 min) by vortexing and centrifuged (10 min, 9,000 rpm, 4°C). Next, 10 μl IS solution (971 ng ml^-1 naringin-D4 and 600 ng ml^-1 naringenin-D4) was added to the supernatants of feces (200 μl) without enzyme incubation. […] The solid material was dissolved with acetonitrile-water (1:1, v/v) and injected into the ultra high-performance liquid chromatography coupled with triple quadrupole mass spectrometry (UHPLC/MS/MS) system as described below. The analysis of nonclinical and clinical samples was performed with a UHPLC/MS/MS system that consisted of a Shimadzu Nexera X2 ultra high-performance liquid chromatography (UHPLC) (Shimadzu Corp., Kyoto, Japan) coupled with an AB Sciex API4000 triple-quadrupole mass spectrometry (MS/MS) system (AB Sciex, Foster City, CA, USA) equipped with an electrospray ionization source and controlled by Analyst (v. 1.6.2) software. […] The injection volume was 10 μl with the flow rate of 0.3 ml min^-1 for plasma, and 0.4 ml min^-1 for urine and feces. The compounds were detected by multiple reaction monitoring in the negative ion electrospray mode. The electrospray source conditions were as follows: ion source gas1 30 psi, ion source gas2 60 psi, curtain gas 20 psi, collisionally activated dissociation (CAD) gas 8 psi, temperature 500°C, and ion spray voltage -4,500 V. Zero air was used for ion source gas1 and ion source gas2 and nitrogen for curtain gas and CAD gas. […] All pharmacokinetic and excretion parameters were expressed as mean ± standard deviation (SD). All mean and SD values were reported to three significant figures. The pharmacokinetic parameters were calculated using the Phoenix WinNonlin software (Version 6.4, Pharsight Corp., Cary, NC, USA) and compared using the Student's t-test (p < 0.05) in SPSS 18.0 (SPSS Inc., Chicago, IL, USA). […]

[1] = both sexes, Beagle, dog, plasma, po, 3.1 mg/kg
[2] = both sexes, Beagle, dog, plasma, po, 12.4 mg/kg
[3] = both sexes, beagle, dog, plasma, iv, 12.4 mg/kg
[4] = both sexes, beagle, dog, plasma, po, 49.6 mg/kg
[5] = female, Beagle, dog, plasma, iv, 12.4 mg/kg
[6] = female, Beagle, dog, plasma, po, 3.1 mg/kg
[7] = female, Beagle, dog, plasma, po, 12.4 mg/kg
[8] = female, Beagle, dog, plasma, po, 49.6 mg/kg
[9] = male, Beagle, dog, plasma, iv, 12.4 mg/kg
[10] = male, Beagle, dog, plasma, po, 3.1 mg/kg
[11] = male, Beagle, dog, plasma, po, 12.4 mg/kg
[12] = male, Beagle, dog, plasma, po, 49.6 mg/kg
[13] = naringin 3.1 mg kg^-1 p.o. single dose, dog
[14] = naringin 12.4 mg kg^-1 p.o. single dose, dog
[15] = naringin 49.6 mg kg^-1 p.o. single dose, dog

O=C1C[C@@H](c2ccc(O)cc2)Oc2cc(O)cc(O)c21 [naringenin, Naringenin]
half-life (both sexes, Beagle, dog, plasma, oral, naringenin in dogs, studies overall): 2.03 ± 0.968 h | lag-time in plasma (dogs, after p.o. naringin): 1.83 ± 0.923 h | time for concentrations to increase to Cmax after the lag-time (dogs, after p.o. naringin): 4.17 ± 1.68 h

C[C@@H]1O[C@@H](O[C@H]2[C@H](Oc3cc(O)c4c(c3)O[C@H](c3ccc(O)cc3)CC4=O)O[C@H](CO)[C@@H](O)[C@@H]2O)[C@H](O)[C@H](O)[C@H]1O [naringin, Naringin]
half-life (both sexes, Beagle, dog, plasma, po): 1.41 ± 0.671 h | AUC(0-inf) [1]: 129 ± 78.2 ng·h/mL | AUC(0-t) [1]: 108 ± 58.8 ng·h/mL | Cmax [1]: 39.9 ± 10.4 ng/mL | Tmax [1]: 1.33 ± 0.258 h | half-life [1]: 1.84 ± 1.46 h | MRT last [1]: 2.5 ± 1.05 h | MRT inf [1]: 3.38 ± 1.88 h | AUC(0-inf) [2]: 135 ± 35.5 ng·h/mL | AUC(0-t) [2]: 124 ± 32.2 ng·h/mL | Cmax [2]: 70.2 ± 16.9 ng/mL | Tmax [2]: 1 ± 0.316 h | half-life [2]: 1.31 ± 0.581 h | MRT last [2]: 1.77 ± 0.371 h | MRT inf [2]: 2.17 ± 0.633 h | Tmax (both sexes, Beagle, dog, plasma, po, dogs, nonclinical p.o. administration studies overall): 1.11 ± 0.344 h | AUC(0-inf) [3]: 2930 ± 403 ng·h/mL | AUC(0-t) [3]: 2920 ± 406 ng·h/mL | Cmax [3]: 5800 ± 946 ng/mL | Tmax [3]: 0.08 h | clearance [3]: 71.8 mL/min/kg | half-life [3]: 1.37 ± 0.347 h | MRT last [3]: 0.703 ± 0.153 h | MRT inf [3]: 0.727 ± 0.143 h | Vd (both sexes, beagle, dog, plasma, iv, 12.4 mg/kg, read-out: Vd): 8.69 ± 3.35 L/kg | AUC(0-inf) [4]: 224 ± 104 ng·h/mL | AUC(0-t) [4]: 211 ± 92.1 ng·h/mL | Cmax [4]: 107 ± 78.2 ng/mL | Tmax [4]: 1 ± 0.447 h | half-life [4]: 1.31 ± 0.293 h | MRT last [4]: 2.46 ± 1.11 h | MRT inf [4]: 2.73 ± 1.02 h | AUC(0-inf) [5]: 3200 ± 337 ng·h/mL | AUC(0-t) [5]: 3190 ± 344 ng·h/mL | Cmax [5]: 5860 ± 1070 ng/mL | Tmax [5]: 0.08 h | half-life [5]: 1.25 ± 0.317 h | AUC(0-inf) [6]: 109 ± 67.7 ng·h/mL | AUC(0-t) [6]: 88.5 ± 40 ng·h/mL | Cmax [6]: 36.8 ± 12.6 ng/mL | Tmax [6]: 1.17 ± 0.289 h | half-life [6]: 1.26 ± 0.633 h | AUC(0-inf) [7]: 132 ± 36.8 ng·h/mL | AUC(0-t) [7]: 115 ± 27.9 ng·h/mL | Cmax [7]: 60.2 ± 10.8 ng/mL | Tmax [7]: 1 ± 0.1 h | half-life [7]: 1.42 ± 0.782 h | AUC(0-inf) [8]: 262 ± 144 ng·h/mL | AUC(0-t) [8]: 240 ± 128 ng·h/mL | Cmax [8]: 157 ± 87.5 ng/mL | Tmax [8]: 1.17 ± 0.289 h | half-life [8]: 1.13 ± 0.312 h | AUC(0-inf) [9]: 2640 ± 255 ng·h/mL | AUC(0-t) [9]: 2640 ± 256 ng·h/mL | Cmax [9]: 5740 ± 1050 ng/mL | Tmax [9]: 0.08 h | half-life [9]: 1.48 ± 0.404 h | AUC(0-inf) [10]: 149 ± 97.4 ng·h/mL | AUC(0-t) [10]: 128 ± 76.6 ng·h/mL | Cmax [10]: 42.9 ± 9.19 ng/mL | Tmax [10]: 1.5 ± 0.231 h | half-life [10]: 2.41 ± 1.98 h | AUC(0-inf) [11]: 137 ± 42.3 ng·h/mL | AUC(0-t) [11]: 132 ± 40 ng·h/mL | Cmax [11]: 80.2 ± 17.2 ng/mL | Tmax [11]: 1 ± 0.5 h | half-life [11]: 1.2 ± 0.443 h | AUC(0-inf) [12]: 185 ± 45.5 ng·h/mL | AUC(0-t) [12]: 181 ± 46.7 ng·h/mL | Cmax [12]: 56.6 ± 6.83 ng/mL | Tmax [12]: 0.833 ± 0.577 h | half-life [12]: 1.5 ± 0.117 h | CL [13]: 520 ± 257 mL/min/kg | Vd [13]: 61.2 ± 23.0 L/kg | CL [14]: 1630 ± 453 mL/min/kg | Vd [14]: 171 ± 59.4 L/kg | CL [15]: 4450 ± 2120 mL/min/kg | Vd [15]: 482 ± 173 L/kg

Reference: publication PMC7118210 (Frontiers in Pharmacology, 2020)
